According to ChEMBL document CHEMBL4507268 (2021):

Tests used:
[1] = molecular target: Mitogen-activated protein kinase kinase kinase 9 (Homo sapiens) (UniProt P80192); conditions: Compound concentration 1.0 uM
[2] = molecular target: Protein kinase C beta type (Homo sapiens) (UniProt P05771); conditions: Compound concentration 1.0 uM
[3] = molecular target: Cyclin-dependent kinase 13/Cyclin-K (Homo sapiens) (UniProt Q14004+O75909); conditions: Compound concentration 1.0 uM
[4] = molecular target: Hepatocyte growth factor receptor (Homo sapiens) (UniProt P08581); conditions: Compound concentration 1.0 uM
[5] = molecular target: Sodium-dependent dopamine transporter (Homo sapiens) (UniProt Q01959); conditions: Compound concentration 10.0 uM
[6] = molecular target: BDNF/NT-3 growth factors receptor (Homo sapiens) (UniProt Q16620); conditions: Compound concentration 1.0 uM
[7] = molecular target: T1, Testis-specific serine/threonine-protein kinase 1 (Homo sapiens) (UniProt Q9BXA7); conditions: Compound concentration 1.0 uM
T1 sequence (whole entry): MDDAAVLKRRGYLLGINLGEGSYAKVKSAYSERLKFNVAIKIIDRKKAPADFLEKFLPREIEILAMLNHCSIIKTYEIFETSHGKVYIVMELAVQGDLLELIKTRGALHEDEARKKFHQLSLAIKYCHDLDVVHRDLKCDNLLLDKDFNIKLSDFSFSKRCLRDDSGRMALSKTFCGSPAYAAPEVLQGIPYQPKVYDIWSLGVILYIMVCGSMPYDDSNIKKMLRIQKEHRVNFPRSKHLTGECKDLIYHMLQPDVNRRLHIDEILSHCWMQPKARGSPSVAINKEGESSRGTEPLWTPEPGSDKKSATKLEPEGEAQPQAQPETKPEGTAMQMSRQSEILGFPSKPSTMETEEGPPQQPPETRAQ

[8] = molecular target: Dual specificity protein kinase CLK2 (Homo sapiens) (UniProt P49760); conditions: Compound concentration 1.0 uM
[9] = molecular target: Ephrin type-A receptor 7 (Homo sapiens) (UniProt Q15375); conditions: Compound concentration 1.0 uM
[10] = molecular target: Glycogen synthase kinase-3 alpha (Homo sapiens) (UniProt P49840); conditions: Compound concentration 1.0 uM
[11] = molecular target: T2, Mitogen-activated protein kinase kinase kinase kinase 3 (Homo sapiens) (UniProt Q8IVH8); conditions: Compound concentration 1.0 uM
T2 sequence (whole entry): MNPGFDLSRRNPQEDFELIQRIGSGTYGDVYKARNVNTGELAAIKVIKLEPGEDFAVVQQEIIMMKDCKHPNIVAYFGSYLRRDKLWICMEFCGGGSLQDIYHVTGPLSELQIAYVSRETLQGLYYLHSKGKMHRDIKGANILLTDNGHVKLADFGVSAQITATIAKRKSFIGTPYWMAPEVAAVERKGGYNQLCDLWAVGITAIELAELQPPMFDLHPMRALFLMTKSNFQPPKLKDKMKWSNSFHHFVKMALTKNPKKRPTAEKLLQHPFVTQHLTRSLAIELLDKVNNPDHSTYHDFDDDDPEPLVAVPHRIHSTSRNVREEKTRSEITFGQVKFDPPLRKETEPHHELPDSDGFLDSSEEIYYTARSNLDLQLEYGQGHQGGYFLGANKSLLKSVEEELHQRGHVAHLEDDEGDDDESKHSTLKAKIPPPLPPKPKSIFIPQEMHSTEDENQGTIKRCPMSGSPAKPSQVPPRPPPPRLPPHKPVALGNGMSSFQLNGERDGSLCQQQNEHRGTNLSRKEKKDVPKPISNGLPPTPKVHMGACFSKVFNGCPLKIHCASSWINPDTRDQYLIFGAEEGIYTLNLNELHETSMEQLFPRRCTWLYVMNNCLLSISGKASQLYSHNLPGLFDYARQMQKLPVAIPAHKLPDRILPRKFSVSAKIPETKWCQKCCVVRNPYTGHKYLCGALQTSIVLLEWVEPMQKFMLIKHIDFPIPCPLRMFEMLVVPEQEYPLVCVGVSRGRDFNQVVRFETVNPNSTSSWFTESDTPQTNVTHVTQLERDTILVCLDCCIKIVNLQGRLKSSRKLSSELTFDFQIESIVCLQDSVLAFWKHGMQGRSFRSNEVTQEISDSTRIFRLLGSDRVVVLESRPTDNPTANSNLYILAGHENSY

[12] = molecular target: Serine/threonine-protein kinase SIK2 (Homo sapiens) (UniProt Q9H0K1); conditions: Compound concentration 1.0 uM

Chain of Protein kinase C beta type (Homo sapiens) (P05771 2-671 limits assumed): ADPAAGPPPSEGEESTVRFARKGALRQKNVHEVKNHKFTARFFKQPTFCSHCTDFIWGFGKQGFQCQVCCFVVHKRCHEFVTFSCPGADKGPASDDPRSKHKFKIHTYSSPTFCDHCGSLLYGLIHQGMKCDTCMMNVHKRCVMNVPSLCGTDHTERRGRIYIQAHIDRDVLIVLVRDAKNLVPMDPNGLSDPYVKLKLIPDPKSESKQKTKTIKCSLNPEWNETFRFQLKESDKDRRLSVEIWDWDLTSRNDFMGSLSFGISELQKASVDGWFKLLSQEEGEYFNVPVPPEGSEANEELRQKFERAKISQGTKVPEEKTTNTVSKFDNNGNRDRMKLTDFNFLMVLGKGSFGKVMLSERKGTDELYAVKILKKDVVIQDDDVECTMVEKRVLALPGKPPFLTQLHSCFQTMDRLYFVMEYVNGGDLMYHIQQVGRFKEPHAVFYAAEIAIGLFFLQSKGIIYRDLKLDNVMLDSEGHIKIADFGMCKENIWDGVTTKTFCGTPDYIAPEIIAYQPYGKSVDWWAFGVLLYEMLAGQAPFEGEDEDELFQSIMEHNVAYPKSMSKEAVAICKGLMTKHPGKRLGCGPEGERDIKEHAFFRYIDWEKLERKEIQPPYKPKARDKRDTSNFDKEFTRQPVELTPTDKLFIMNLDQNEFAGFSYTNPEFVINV
Chain of Hepatocyte growth factor receptor (Homo sapiens) (P08581 whole entry): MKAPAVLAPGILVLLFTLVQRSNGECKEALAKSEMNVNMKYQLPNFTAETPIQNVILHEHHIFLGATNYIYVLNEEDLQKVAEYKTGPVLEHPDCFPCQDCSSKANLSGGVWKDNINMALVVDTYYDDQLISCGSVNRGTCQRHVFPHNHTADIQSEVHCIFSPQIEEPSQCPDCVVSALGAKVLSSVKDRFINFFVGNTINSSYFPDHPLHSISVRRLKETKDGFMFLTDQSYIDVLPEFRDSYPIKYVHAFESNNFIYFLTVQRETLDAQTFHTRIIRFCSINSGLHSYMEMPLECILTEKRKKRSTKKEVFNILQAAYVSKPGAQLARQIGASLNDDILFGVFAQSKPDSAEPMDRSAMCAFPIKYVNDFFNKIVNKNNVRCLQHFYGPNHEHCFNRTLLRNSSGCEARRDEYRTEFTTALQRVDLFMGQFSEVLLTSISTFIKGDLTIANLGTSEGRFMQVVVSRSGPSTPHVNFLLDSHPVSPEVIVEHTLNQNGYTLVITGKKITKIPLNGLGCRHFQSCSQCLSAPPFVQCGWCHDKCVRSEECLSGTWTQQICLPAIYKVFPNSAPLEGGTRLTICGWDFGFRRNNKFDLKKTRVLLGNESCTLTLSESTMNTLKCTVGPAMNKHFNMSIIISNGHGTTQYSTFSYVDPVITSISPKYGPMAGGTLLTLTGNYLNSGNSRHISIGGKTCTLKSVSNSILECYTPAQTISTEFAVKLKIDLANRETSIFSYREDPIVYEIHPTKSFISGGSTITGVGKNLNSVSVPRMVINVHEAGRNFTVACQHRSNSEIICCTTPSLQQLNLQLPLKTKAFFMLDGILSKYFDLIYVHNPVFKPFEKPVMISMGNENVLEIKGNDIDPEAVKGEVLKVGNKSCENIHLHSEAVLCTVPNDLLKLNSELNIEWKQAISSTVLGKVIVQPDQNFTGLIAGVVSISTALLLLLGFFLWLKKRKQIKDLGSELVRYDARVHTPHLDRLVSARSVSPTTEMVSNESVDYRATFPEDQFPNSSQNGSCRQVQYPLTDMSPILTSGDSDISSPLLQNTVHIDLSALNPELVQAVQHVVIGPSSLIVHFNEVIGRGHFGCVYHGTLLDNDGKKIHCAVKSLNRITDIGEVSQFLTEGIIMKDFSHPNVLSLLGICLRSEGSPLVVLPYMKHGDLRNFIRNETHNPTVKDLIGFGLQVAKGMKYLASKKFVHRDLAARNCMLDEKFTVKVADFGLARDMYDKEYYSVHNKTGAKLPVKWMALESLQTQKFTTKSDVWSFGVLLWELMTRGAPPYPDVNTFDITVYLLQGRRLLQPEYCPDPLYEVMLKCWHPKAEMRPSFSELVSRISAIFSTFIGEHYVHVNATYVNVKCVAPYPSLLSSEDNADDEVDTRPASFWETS
Chain of Sodium-dependent dopamine transporter (Homo sapiens) (Q01959 whole entry): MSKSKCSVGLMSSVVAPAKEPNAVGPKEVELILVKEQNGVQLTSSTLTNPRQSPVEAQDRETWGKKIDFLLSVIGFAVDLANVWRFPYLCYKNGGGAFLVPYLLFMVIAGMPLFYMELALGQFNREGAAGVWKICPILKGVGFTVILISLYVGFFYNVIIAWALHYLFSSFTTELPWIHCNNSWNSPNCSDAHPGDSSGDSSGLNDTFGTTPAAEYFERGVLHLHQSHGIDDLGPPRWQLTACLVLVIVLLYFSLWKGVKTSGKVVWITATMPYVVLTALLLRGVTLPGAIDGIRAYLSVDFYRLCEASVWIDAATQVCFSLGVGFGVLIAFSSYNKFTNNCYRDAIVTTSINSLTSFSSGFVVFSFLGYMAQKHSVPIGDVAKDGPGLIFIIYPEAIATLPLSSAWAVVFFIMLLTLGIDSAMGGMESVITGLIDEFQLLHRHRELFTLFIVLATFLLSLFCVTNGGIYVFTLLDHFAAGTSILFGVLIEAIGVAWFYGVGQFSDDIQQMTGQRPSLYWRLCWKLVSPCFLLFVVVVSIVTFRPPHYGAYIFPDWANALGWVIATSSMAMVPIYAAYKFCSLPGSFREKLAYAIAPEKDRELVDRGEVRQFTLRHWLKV
Chain of Mitogen-activated protein kinase kinase kinase 9 (Homo sapiens) (P80192 whole entry, looked up): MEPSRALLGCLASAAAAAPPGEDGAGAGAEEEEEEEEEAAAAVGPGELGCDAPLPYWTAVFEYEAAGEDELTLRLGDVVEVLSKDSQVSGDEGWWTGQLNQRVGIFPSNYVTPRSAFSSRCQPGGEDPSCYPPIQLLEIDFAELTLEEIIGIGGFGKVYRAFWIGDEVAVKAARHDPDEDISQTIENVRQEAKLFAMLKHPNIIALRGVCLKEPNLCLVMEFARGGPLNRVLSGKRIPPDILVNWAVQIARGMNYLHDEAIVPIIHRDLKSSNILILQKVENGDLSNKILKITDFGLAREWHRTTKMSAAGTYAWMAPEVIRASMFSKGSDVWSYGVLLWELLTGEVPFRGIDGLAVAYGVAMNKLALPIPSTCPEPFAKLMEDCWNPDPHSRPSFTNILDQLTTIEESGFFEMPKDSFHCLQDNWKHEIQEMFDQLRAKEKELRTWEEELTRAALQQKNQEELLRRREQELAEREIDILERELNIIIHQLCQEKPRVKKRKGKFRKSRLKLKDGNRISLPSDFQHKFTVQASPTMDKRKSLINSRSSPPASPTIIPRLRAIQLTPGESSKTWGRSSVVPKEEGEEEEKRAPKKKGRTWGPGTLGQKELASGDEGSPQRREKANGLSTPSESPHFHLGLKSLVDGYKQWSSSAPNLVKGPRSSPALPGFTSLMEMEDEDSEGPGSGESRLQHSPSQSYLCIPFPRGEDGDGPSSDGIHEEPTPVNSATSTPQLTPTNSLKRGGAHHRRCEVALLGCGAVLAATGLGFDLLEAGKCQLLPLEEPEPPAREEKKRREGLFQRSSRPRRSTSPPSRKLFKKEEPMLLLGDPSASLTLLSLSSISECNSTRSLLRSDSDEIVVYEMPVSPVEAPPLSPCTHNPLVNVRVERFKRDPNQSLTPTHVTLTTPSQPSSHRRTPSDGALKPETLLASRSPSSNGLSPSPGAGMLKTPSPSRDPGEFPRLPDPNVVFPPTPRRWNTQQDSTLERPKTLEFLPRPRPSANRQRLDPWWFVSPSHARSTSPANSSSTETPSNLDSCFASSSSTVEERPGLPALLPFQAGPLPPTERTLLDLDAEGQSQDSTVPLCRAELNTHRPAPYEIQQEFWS
Chain of Dual specificity protein kinase CLK2 (Homo sapiens) (P49760 whole entry, looked up): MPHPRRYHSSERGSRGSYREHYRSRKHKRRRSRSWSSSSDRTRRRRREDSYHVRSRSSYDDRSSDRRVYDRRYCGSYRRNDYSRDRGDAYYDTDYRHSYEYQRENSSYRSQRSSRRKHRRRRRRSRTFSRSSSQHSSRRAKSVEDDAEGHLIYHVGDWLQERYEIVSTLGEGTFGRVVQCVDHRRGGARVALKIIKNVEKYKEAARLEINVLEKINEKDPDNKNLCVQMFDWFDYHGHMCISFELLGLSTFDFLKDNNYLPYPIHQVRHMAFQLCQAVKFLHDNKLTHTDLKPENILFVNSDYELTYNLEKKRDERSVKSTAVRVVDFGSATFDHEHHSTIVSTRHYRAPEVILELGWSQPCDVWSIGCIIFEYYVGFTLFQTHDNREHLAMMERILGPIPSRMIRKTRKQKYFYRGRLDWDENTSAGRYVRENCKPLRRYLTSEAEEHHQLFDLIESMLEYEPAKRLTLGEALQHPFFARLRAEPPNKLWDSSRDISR
Chain of Glycogen synthase kinase-3 alpha (Homo sapiens) (P49840 2-483 limits assumed): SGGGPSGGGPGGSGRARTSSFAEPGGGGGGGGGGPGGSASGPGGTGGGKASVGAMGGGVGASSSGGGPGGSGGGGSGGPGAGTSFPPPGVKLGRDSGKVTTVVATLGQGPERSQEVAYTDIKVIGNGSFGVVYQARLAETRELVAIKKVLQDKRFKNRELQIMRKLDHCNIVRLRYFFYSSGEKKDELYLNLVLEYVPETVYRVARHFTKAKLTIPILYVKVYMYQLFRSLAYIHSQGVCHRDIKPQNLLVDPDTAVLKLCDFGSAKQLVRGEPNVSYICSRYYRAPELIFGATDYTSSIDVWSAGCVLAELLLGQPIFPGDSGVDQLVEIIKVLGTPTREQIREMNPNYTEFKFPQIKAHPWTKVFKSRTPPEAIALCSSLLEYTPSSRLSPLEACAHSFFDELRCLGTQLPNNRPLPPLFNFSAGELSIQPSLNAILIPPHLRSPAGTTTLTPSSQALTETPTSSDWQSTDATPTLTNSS

CN1CCN(c2cnc3c(C4CCN(C(=O)c5ccc(OC(F)(F)F)cc5N)CC4)ncnc3c2)CC1 [BAY-885]
inactive: % residual kinase activity [1] 108% | % residual kinase activity [2] 112% | % residual kinase activity [3] 109% | % residual kinase activity [4] 93% | inhibition [5] -4.2% | % residual kinase activity [6] 98% | % residual kinase activity [7] 107% | % residual kinase activity [8] 109% | % residual kinase activity [9] 92% | % residual kinase activity [10] 112% | % residual kinase activity [11] 102% | % residual kinase activity [12] 101%
